Results on 36 compounds are retold here after patent US11180483B2, “Substituted reverse pyrimidine Bmi-1 inhibitors” (PTC Therapeutics, Inc., priority 2012, dated 2021).

Molecules are shown by their SMILES.

What is called EC50 is the concentration needed to bring the measured effect to its halfway point. A higher EC50 goes with lower potency in that assay.

In the assay the test system is Bmi-1. The experiment in a line: Sandwich ELISA Assay (Bmi-1 ELISA) in HT-1080 cells. Type of assay: cell-based. A digest of the protocol: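 Bmi-1 in lysates was measured by a three-antibody ELISA with TMB, OD450 minus OD570 reference, interpolated on a GST-tagged recombinant Bmi-1 standard curve, 0-8000 pg/mL. Lysates came from HT-1080 cells treated 40-48 h with compound, final DMSO 0.5%.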
In general terms: In an ELISA, binding on a coated surface is turned into a signal by an enzyme label.
The compound `Cc1nc2ccccc2n1-c1nc(N)c(F)c(Nc2ccc(C(F)(F)F)cc2)n1` [Cpd 95, 5-fluoro-2-(2-methyl-1H-benzimidazol-1-yl)-N-[4-(trifluoromethyl)phenyl]pyrimidine-4,6-diamine] had an EC50 of 10 to 100 nM.
Under `Cc1nc2ncc(F)cc2n1-c1nc(N)cc(Nc2ccc(C(F)(F)F)cc2)n1` [Cpd 94, 2-(6-fluoro-2-methyl-1H-imidazo[4,5-b]pyridin-1-yl)-N-[4-(trifluoromethyl)phenyl]pyrimidine-4,6-diamine] stands 10 to 100 nM; under `Cc1nc2c(F)cccc2n1-c1nc(N)c(F)c(Nc2ccc(OC(F)F)c(F)c2)n1` [Cpd 136, N-[4-(difluoromethoxy)-3-fluorophenyl]-5-fluoro-2-(4-fluoro-2-methyl-1H-benzimidazol-1-yl)pyrimidine-4,6-diamine], 10 to 100 nM.
In turn, `COc1ccc(Nc2cc(N)nc(-n3c(C)nc4ccc(F)cc43)n2)cc1` [Cpd 265, 2-(6-fluoro-2-methyl-1H-benzimidazol-1-yl)-N-(4-methoxyphenyl)pyrimidine-4,6-diamine] returned an EC50 of 1 to 10 nM.
The result for `Cc1nc2ccccc2n1-c1nc(N)c(F)c(Nc2ccc(OC(F)F)c(F)c2)n1` [Cpd 119, N-[4-(difluoromethoxy)-3-fluorophenyl]-5-fluoro-2-(2-methyl-1H-benzimidazol-1-yl)pyrimidine-4,6-diamine] reads 10 to 100 nM; that for `Cc1nc2ccc([N+](=O)[O-])cc2n1-c1nc(N)c(F)c(Nc2ccc(C(F)(F)F)cc2)n1` [Cpd 236, 5-fluoro-2-(2-methyl-6-nitro-1H-benzimidazol-1-yl)-N-[4-(trifluoromethyl)phenyl]pyrimidine-4,6-diamine], 100 to 3000 nM.
Consider `Cc1nc2ccc(F)cc2n1-c1nc(N)c(F)c(Nc2cccc(Cl)c2)n1` [Cpd 190, N-(3-chlorophenyl)-5-fluoro-2-(6-fluoro-2-methyl-1H-benzimidazol-1-yl)pyrimidine-4,6-diamine], for which the EC50 is 100 to 3000 nM.
The compound `COCc1nc2ccccc2n1-c1nc(N)c(F)c(Nc2ccc(C(F)(F)F)cc2)n1` [Cpd 220, 5-fluoro-2-[2-(methoxymethyl)-1H-benzimidazol-1-yl]-N-[4-(trifluoromethyl)phenyl]pyrimidine-4,6-diamine] came in with an EC50 of 10 to 100 nM.
Under `FC(F)(F)c1ccc(Nc2ccnc(-c3c(C(F)(F)F)nc4ccccn34)n2)cc1` [Cpd 7, 2-[2-(trifluoromethyl)imidazo[1,2-a]pyridin-3-yl]-N-[4-(trifluoromethyl)phenyl]pyrimidin-4-amine] stands 100 to 3000 nM; under `Cc1nc2ccccc2n1-c1nc(N)cc(Nc2ccc(C#N)cc2)n1` [Cpd 210, 4-{[6-amino-2-(2-methyl-1H-benzimidazol-1-yl)pyrimidin-4-yl]amino}benzonitrile], 100 to 3000 nM; under `Cc1nc2ccccn2c1-c1nc(N)c(F)c(Nc2ccc(OC(F)F)cc2)n1` [Cpd 170, N-[4-(difluoromethoxy)phenyl]-5-fluoro-2-(2-methylimidazo[1,2-a]pyridin-3-yl)pyrimidine-4,6-diamine], 100 to 3000 nM.
The compound `Cc1ccc(Nc2ccnc(-c3c(C)nc4ccc(C(F)(F)F)cn34)n2)cc1` [Cpd 20, N-(4-methylphenyl)-2-[2-methyl-6-(trifluoromethyl)imidazo[1,2-a]pyridin-3-yl]pyrimidin-4-amine] registered an EC50 of 100 to 3000 nM.
As for `CCc1nc2ccc(F)cc2n1-c1nc(N)c(F)c(Nc2ccc(C(F)(F)F)cc2)n1` [Cpd 164, 2-(2-ethyl-6-fluoro-1H-benzimidazol-1-yl)-5-fluoro-N-[4-(trifluoromethyl)phenyl]pyrimidine-4,6-diamine], the EC50 was 10 to 100 nM.
Compound `Fc1ccc2nc(C(F)(F)F)c(-c3nccc(Nc4ccc(C(F)(F)F)cc4)n3)n2c1` [Cpd 54, 2-[6-fluoro-2-(trifluoromethyl)imidazo[1,2-a]pyridin-3-yl]-N-[4-(trifluoromethyl)phenyl]pyrimidin-4-amine] displayed an EC50 of 100 to 3000 nM.
The result for `Nc1cc(Nc2ccc(C(F)(F)F)cc2)nc(-n2c(C3CC3)nc3cc(F)ccc32)n1` [Cpd 83, 2-(2-cyclopropyl-5-fluoro-1H-benzimidazol-1-yl)-N-[4-(trifluoromethyl)phenyl]pyrimidine-4,6-diamine] reads 10 to 100 nM.
Under `Cc1cccc(Nc2nc(-n3c(C)nc4ccccc43)nc(N)c2F)c1` [Cpd 194, 5-fluoro-2-(2-methyl-1H-benzimidazol-1-yl)-N-(3-methylphenyl)pyrimidine-4,6-diamine] stands 100 to 3000 nM.
With `COc1ccc(Nc2cc(N)nc(-n3c(C)nc4ccccc43)n2)cc1` [Cpd 197, N-(4-methoxyphenyl)-2-(2-methyl-1H-benzimidazol-1-yl)pyrimidine-4,6-diamine], the EC50 is 1 to 10 nM.
`Nc1nc(-n2c(C3CC3)nc3ccccc32)nc(Nc2ccc(OC(F)(F)F)cc2)c1F` [Cpd 278, 2-(2-cyclopropyl-1H-benzimidazol-1-yl)-5-fluoro-N-[4-(trifluoromethoxy)phenyl]pyrimidine-4,6-diamine]: the EC50 was in the range of 100 to 3000 nM.
Under `Cc1nc2c(F)cc(F)cc2n1-c1nc(N)c(F)c(Nc2ccc3c(c2)OCO3)n1` [Cpd 240, N-(1,3-benzodioxol-5-yl)-2-(4,6-difluoro-2-methyl-1H-benzimidazol-1-yl)-5-fluoropyrimidine-4,6-diamine] stands 1 to 10 nM; under `CCc1nc2ccccc2n1-c1nc(N)c(Cl)c(Nc2ccc(OC(F)F)cc2)n1` [Cpd 168, 5-chloro-N-[4-(difluoromethoxy)phenyl]-2-(2-ethyl-1H-benzimidazol-1-yl)pyrimidine-4,6-diamine], 100 to 3000 nM; under `CCc1nc2ncc(Cl)cc2n1-c1nc(N)cc(Nc2ccc(C(F)(F)F)cc2)n1` [Cpd 105, 2-(6-chloro-2-ethyl-1H-imidazo[4,5-b]pyridin-1-yl)-N-[4-(trifluoromethyl)phenyl]pyrimidine-4,6-diamine], 10 to 100 nM.
The result for `Cc1nc2ccc(C#N)cc2n1-c1nc(N)c(F)c(Nc2ccc(OC(F)F)cc2)n1` [Cpd 223, 1-(4-amino-6-{[4-(difluoromethoxy)phenyl]amino}-5-fluoropyrimidin-2-yl)-2-methyl-1H-benzimidazole-6-carbonitrile] reads 100 to 3000 nM; that for `Cc1nc2cc(F)ccc2n1-c1nc(N)c(F)c(Nc2ccc(Cl)c(F)c2)n1` [Cpd 260, N-(4-chloro-3-fluorophenyl)-5-fluoro-2-(5-fluoro-2-methyl-1H-benzimidazol-1-yl)pyrimidine-4,6-diamine], 100 to 3000 nM.
Take `CSc1nc2ccccc2n1-c1nc(N)cc(Nc2ccc(C(F)(F)F)cc2)n1` [Cpd 182, 2-[2-(methylsulfanyl)-1H-benzimidazol-1-yl]-N-[4-(trifluoromethyl)phenyl]pyrimidine-4,6-diamine]: the EC50 was 100 to 3000 nM.
Under `Nc1nc(-n2c(C3CC3)nc3c(F)cccc32)nc(Nc2ccc(OC(F)F)cc2)c1F` [Cpd 141, 2-(2-cyclopropyl-4-fluoro-1H-benzimidazol-1-yl)-N-[4-(difluoromethoxy)phenyl]-5-fluoropyrimidine-4,6-diamine] stands 10 to 100 nM; under `Cc1ccc(Nc2nc(-n3c(C)nc4c(F)cc(F)cc43)nc(N)c2F)cc1` [Cpd 241, 2-(4,6-difluoro-2-methyl-1H-benzimidazol-1-yl)-5-fluoro-N-(4-methylphenyl)pyrimidine-4,6-diamine], 10 to 100 nM.
The result for `Cc1nc2cc(F)c(F)cc2n1-c1nc(N)cc(Nc2ccc(C(F)(F)F)cc2)n1` [Cpd 64, 2-(5,6-difluoro-2-methyl-1H-benzimidazol-1-yl)-N-[4-(trifluoromethyl)phenyl]pyrimidine-4,6-diamine] reads 10 to 100 nM.
`CCc1nc2ccccc2n1-c1nc(N)c(Cl)c(Nc2ccc(C(F)(F)F)cc2)n1` [Cpd 167, 5-chloro-2-(2-ethyl-1H-benzimidazol-1-yl)-N-[4-(trifluoromethyl)phenyl]pyrimidine-4,6-diamine] yielded an EC50 of 10 to 100 nM.
The result for `Cc1nc2cc(C#N)ccc2n1-c1nc(N)c(F)c(Nc2ccc(C(F)(F)F)cc2)n1` [Cpd 229, 1-(4-amino-5-fluoro-6-{[4-(trifluoromethyl)phenyl]amino}pyrimidin-2-yl)-2-methyl-1H-benzimidazole-5-carbonitrile] reads 100 to 3000 nM.
Turning to `CC1(c2nc3ccccc3n2-c2nc(N)cc(Nc3ccc(OC(F)F)cc3)n2)CC1` [Cpd 148, N-[4-(difluoromethoxy)phenyl]-2-[2-(1-methylcyclopropyl)-1H-benzimidazol-1-yl]pyrimidine-4,6-diamine], the EC50 lay in the range of 100 to 3000 nM.
As for `Cn1c(C(F)(F)F)c(-c2nccc(Nc3ccc(OC(F)F)cc3)n2)c2cc(Cl)ccc21` [Cpd 24, 2-[5-chloro-1-methyl-2-(trifluoromethyl)-1H-indol-3-yl]-N-[4-(difluoromethoxy)phenyl]pyrimidin-4-amine], the EC50 is 100 to 3000 nM.
In turn, `Cc1nc2ccccc2n1-c1nc(N)cc(Nc2ccc(C(F)(F)F)cc2)n1` [Cpd 63, 2-(2-methyl-1H-benzimidazol-1-yl)-N-[4-(trifluoromethyl)phenyl]pyrimidine-4,6-diamine] displayed an EC50 of 10 to 100 nM.
As to `Cc1nc2c(F)cccc2n1-c1nc(N)c(F)c(Nc2ccc(C(F)(F)F)cc2)n1` [Cpd 134, 5-fluoro-2-(4-fluoro-2-methyl-1H-benzimidazol-1-yl)-N-[4-(trifluoromethyl)phenyl]pyrimidine-4,6-diamine], the EC50 lay in the range of 10 to 100 nM.
Under `Cc1nc2ncc(Cl)cc2n1-c1nc(N)c(F)c(Nc2ccc(C(F)(F)F)cc2)n1` [Cpd 114, 2-(6-chloro-2-methyl-1H-imidazo[4,5-b]pyridin-1-yl)-5-fluoro-N-[4-(trifluoromethyl)phenyl]pyrimidine-4,6-diamine] stands 10 to 100 nM.
Under `FC(F)(F)c1nc2ccccn2c1-c1nccc(Nc2ccc3c(c2)OCCO3)n1` [Cpd 29, N-(2,3-dihydro-1,4-benzodioxin-6-yl)-2-[2-(trifluoromethyl)imidazo[1,2-a]pyridin-3-yl]pyrimidin-4-amine] stands 10 to 100 nM; under `COc1ccc(Nc2ccnc(-c3c(C(F)(F)F)nc4ccccn34)n2)cc1Cl` [Cpd 35, N-(3-chloro-4-methoxyphenyl)-2-[2-(trifluoromethyl)imidazo[1,2-a]pyridin-3-yl]pyrimidin-4-amine], 100 to 3000 nM.
